# In US12629363B2, “Prophylaxis and treatment of angioedema” (PHARVARIS GMBH, priority 2020, dated 2026):
# What was measured:
# [1] = Ascending dose study 22-50 mg in healthy volunteers, PK (Example 4); assay type: in vivo, human
# [2] = Ascending dose study 22-50 mg in healthy volunteers, safety and tolerability (Example 4); assay type: in vivo, human
# [3] = Drug-drug interaction trial with itraconazole, safety and tolerability (Example 5); assay type: in vivo, human; settings: single 12 mg oral doses on Day 1 and Day 7 (with itraconazole)
# Source text: Thirteen healthy subjects were enrolled and completed the study.
# CYP3A4 = CYP3A4 (Homo sapiens, UniProt P08684); assay: In vitro CYP3A4 substrate data; assay type: in vitro ADME
# mouse B2 receptor = target: T1, mouse B2 receptor (Mus musculus, UniProt P32299); assay: Antagonist potency in cells expressing mouse B2 receptor; assay type: cell-based; settings: compared with human B2 receptor
# T1 construct: expressed in transfected cells
# T1 sequence (P32299 1-392): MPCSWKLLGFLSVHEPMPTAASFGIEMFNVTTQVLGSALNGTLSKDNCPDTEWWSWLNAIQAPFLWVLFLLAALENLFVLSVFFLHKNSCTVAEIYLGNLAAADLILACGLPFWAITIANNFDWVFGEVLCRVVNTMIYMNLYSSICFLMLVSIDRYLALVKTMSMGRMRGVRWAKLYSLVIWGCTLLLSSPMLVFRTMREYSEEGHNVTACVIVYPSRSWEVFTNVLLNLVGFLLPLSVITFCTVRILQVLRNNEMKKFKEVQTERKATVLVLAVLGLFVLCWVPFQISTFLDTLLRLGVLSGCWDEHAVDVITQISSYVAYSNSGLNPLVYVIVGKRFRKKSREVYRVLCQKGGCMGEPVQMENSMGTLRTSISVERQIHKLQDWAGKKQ
# Source text: (§1) The bradykinin B2 receptor is well known for its species selective pharmacology (Paquet et al., Br. J. Pharmacol. (126), 1083-1090, 1999 (DOI: 10.1038/sj.bjp.0702403); Burgess et al., Br. J. Pharmacol. (129), 77-86, 2000 (DOI: 10.1038/sj.bjp.0703012)). […] Pharmacol. 11:916; DOI: 10.3389/fphar.2020.00916.
# [4] = Population 2-compartment PK model with oral absorption (BK challenge study); assay type: in vivo, human; settings: population PK model parameter estimate (CV %)
# Experimental: A PK/PD analysis using the same approach as in the icatibant evaluation was conducted. […] PK was analyzed using a two-compartment body model with first-order oral absorption and a lag time; results are shown in Table 4. For the PK/PD model a simple Emax-model with a direct link was utilized. The PK/PD model was used to simulate PK profiles (N=1000) and calculate probability of durations of effect as well as to visualize effect-time profiles; see FIGS. 4 and 5.
# clinical = settings: human, in vivo, po, 12 mg
# Experimental: On Days 4 to 8, subjects received once daily oral doses of 200 mg itraconazole one hour before start of a standard meal.
# Trough plasma concentrations of itraconazole were determined by taking predose plasma samples on Days 4-7, to document exposure to itraconazole.
# [5] = target: T2, cynomolgus monkey B2 receptor (Macaca fascicularis, UniProt A0A7N9CWN6); assay: Antagonist potency in cells expressing cynomolgus monkey B2 receptor; assay type: cell-based; settings: read-out: Kb value to antagonize BK activation
# T2 sequence (A0A7N9CWN6 1-391): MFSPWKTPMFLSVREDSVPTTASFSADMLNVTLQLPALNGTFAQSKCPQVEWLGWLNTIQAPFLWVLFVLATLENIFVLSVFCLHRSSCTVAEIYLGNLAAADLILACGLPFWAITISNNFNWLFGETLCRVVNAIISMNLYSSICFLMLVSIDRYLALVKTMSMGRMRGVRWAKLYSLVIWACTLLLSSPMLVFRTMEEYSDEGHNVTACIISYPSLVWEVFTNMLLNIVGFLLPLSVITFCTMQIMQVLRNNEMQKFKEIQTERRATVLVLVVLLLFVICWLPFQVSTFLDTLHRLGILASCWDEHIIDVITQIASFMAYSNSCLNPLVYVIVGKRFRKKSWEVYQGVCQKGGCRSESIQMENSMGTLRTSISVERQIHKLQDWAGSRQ
# Source text: as §1
# [6] = target: T3, endogenous human B2 receptors (Homo sapiens, UniProt P30411); assay: Antagonist potency at endogenous human B2 receptors
# T3 sequence (P30411 1-391): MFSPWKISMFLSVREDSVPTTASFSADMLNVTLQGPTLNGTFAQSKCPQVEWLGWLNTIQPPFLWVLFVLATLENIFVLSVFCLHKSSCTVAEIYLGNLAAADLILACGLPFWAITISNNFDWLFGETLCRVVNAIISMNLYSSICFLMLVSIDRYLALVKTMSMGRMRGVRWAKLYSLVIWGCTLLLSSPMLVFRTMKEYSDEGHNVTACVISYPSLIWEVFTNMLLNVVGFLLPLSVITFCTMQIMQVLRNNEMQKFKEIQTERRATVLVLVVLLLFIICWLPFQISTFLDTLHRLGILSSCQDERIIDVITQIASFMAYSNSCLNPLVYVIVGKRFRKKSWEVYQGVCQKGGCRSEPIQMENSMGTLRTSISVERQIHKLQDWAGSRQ
# human B2 receptor = target: T4, human B2 receptor (Homo sapiens, UniProt P30411); assay: Antagonist potency in cells expressing human B2 receptor; assay type: cell-based
# T4 sequence (P30411 1-391): T3 sequence (P30411 1-391)
# Source text: as §1
# Plasma protein binding = assay type: in vitro ADME; settings: human
# rat B2 receptor = target: T5, rat B2 receptor (Rattus norvegicus, UniProt P25023); assay: Antagonist potency in cells expressing rat B2 receptor; assay type: cell-based; settings: compared with human B2 receptor
# T5 construct: expressed in transfected cells
# T5 sequence (P25023 1-396): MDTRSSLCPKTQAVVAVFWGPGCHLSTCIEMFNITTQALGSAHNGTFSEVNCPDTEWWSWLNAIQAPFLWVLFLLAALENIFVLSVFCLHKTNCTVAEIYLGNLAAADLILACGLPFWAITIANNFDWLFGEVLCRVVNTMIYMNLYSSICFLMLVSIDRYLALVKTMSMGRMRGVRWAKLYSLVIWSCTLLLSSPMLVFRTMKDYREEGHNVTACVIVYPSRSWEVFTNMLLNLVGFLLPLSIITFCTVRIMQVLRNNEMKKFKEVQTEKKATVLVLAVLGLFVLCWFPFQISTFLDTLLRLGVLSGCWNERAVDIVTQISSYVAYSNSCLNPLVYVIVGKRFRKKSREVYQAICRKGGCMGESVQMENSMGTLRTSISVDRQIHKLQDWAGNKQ
# Source text: as §1
# [7] = 22 to 50 mg (factor 2.27 increase), after a standardized breakfast
# CYP3A4, sequence (P08684 whole entry): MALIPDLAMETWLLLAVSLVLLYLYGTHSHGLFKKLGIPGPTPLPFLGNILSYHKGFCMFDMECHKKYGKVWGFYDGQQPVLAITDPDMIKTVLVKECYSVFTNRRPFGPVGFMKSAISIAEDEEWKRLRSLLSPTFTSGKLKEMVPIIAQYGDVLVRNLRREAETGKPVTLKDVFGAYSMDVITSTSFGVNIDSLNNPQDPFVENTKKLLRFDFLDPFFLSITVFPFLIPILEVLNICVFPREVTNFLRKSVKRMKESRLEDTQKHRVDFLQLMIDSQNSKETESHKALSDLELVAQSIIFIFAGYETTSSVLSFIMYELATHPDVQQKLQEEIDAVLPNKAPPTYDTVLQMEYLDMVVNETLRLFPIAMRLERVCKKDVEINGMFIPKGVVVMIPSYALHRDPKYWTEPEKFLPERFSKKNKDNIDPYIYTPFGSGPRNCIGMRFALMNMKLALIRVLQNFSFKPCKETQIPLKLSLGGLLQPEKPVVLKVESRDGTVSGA
structure (smiles),measurement,setting,value
[2H][C@@](C)(NC(=O)COC(F)F)c1cc(F)cc(Cl)c1COc1cccc2c(-c3ncnn3C)cc(C)nc12 [compound of formula (I)],fold increase for mean AUC0-24h,[1]; [7],2.39 fold
same,fold increase for mean Cmax,[1]; [7],2.37 fold
same,dose proportionality of PK,[1]; 22 to 50 mg after a standardized breakfast,dose-proportional PK
same,change in AUCinf after a standardized breakfast,[1]; compared to fasting conditions,did not show a significant change
same,decrease in Cmax after a standardized breakfast,[1]; compared to fasting conditions,40-50%
same,"C12h and C24h plasma concentration, fed vs fasting","[1]; human, in vivo",higher under fed conditions
same,"changes in vital signs, laboratory, or ECG parameters vs placebo",[2]; 22-50 mg single oral doses,no clinically significant changes
same,serious adverse effects,[2]; 22-50 mg single oral doses,no serious adverse effects reported
same,safety and tolerability,[2]; doses up to 40 mg under fasting and 50 mg under fed conditions,safe and well tolerated
same,tolerability,[3],well tolerated with no related adverse events reported
same,CYP3A4 substrate,CYP3A4,substrate of CYP3A4
same,fold less potent towards the mouse B2 receptor,mouse B2 receptor,more than 3000 fold
same,CL/F apparent clearance,[4],34.5 (5.9%) L/h
same,Ka first order absorption rate constant,[4],7.97 (25.1%) 1/h
same,Q/F apparent inter-compartmental clearance,[4],10.7 (15.8%) L/h
same,Tlag lag time,[4],0.181 (9.9%) h
same,V2/F apparent volume for the central compartment,[4],101 (4.5%) L
same,V3/F apparent volume for the peripheral compartment,[4],35.9 (10.7%) L
same,Tmax,clinical,30 to 60 min
same,half-life,clinical,259 min
same,Kb,[5],1.42 nM
same,antagonist potency at endogenous human B2 receptors,[6],350 pM
same,times more potent at human B2 receptor than icatibant,human B2 receptor,about 20 times
same,intrinsic agonist activity,human B2 receptor; B2 receptor,devoid of intrinsic agonist activity
same,Kb,"human B2 receptor; human B2 receptor, read-out: Kb value to antagonize BK activation",0.15 nM
same,antagonist potency at recombinant human B2 receptors,human B2 receptor; recombinant,150 pM
same,fraction unbound,Plasma protein binding,0.038
same,fold less potent in antagonizing the rat B2 receptor,rat B2 receptor,more than 1000 fold
